The source of these data is ChEMBL document CHEMBL4177767, “Discovery of N2-(4-Amino-cyclohexyl)-9-cyclopentyl- N6-(4-morpholin-4-ylmethyl-phenyl)- 9H-purine-2,6-diamine as a Potent FLT3 Kinase Inhibitor for Acute Myeloid Leukemia with FLT3 Mutations” (J Med Chem, 2018).

The test system of one data set is MCF7. Put plainly: cells. Particulars: Homo sapiens, MCF7, 72 h.
Data set [1] in a line: in vitro. The note with it: human, HUVEC.
The next data set relates to HCC827. Put plainly: cells. The note with it: Homo sapiens, HCC827, 72 h.
Data set [2] concerns the target Receptor-type tyrosine-protein kinase FLT3 (Homo sapiens, UniProt P36888, D835Y). Put plainly: biochemical. Type of data set: cell-based, Sf9.
Description: Inhibition of N-terminal GST/His6-fused recombinant human FLT3 (R571 to S993 residues) D835Y mutant expressed in Sf9 insect cells using poly (Ala,Glu,Lys,Tyr) 6:2:5:1 hydrobromide as substrate in presence of [gamma-33P]ATP
Data set [3] is described as follows: in vitro. The note with it: human, MRC5 cells.
Another data set has as its system Kasumi 1. Put plainly: cells. The note with it: Homo sapiens, Kasumi 1, 72 h.
In a further data set the test system is MV4-11. Put plainly: Growth inhibition of human MV4-11 cells after 72 hrs by calcein AM dye-based fluorescence assay. The note with it: MV4-11, 72 h. The class given is functional.
The target of data set [4] is T1, Receptor-type tyrosine-protein kinase FLT3 (Homo sapiens, UniProt P36888).
T1 sequence (P36888 whole entry): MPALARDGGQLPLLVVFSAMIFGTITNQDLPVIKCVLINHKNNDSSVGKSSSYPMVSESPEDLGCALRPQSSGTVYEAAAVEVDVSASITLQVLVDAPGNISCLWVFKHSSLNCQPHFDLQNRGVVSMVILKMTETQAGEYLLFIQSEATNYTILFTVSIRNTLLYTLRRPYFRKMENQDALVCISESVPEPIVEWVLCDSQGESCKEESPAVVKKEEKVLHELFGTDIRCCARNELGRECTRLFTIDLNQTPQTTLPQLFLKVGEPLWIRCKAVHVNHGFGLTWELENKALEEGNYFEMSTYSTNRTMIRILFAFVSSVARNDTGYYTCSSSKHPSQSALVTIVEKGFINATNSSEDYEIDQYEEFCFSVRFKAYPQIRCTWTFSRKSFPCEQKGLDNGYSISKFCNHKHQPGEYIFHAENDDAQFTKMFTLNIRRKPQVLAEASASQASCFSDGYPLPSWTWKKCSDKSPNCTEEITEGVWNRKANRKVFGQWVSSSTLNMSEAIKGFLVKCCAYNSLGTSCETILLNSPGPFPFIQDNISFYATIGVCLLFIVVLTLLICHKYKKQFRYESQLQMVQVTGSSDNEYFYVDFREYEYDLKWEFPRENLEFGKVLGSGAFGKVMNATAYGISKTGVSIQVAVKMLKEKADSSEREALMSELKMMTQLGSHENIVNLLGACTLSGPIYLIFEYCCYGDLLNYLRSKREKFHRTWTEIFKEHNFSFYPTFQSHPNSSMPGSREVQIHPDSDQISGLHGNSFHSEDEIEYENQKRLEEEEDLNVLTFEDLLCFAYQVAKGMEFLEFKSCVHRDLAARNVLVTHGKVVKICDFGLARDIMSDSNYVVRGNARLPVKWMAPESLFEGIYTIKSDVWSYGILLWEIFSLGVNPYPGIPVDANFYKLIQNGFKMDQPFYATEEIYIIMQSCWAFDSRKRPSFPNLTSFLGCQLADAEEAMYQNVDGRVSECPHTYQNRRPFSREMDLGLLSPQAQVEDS
Put plainly: biochemical. Type of data set: cell-based, Sf9.
Description: Inhibition of N-terminal GST/His6-fused recombinant wild type human FLT3 (R571 to S993 residues) expressed in Sf9 insect cells using poly (Ala,Glu,Lys,Tyr) 6:2:5:1 hydrobromide as substrate in presence of [gamma-33P]ATP

For another data set, the system named is THP-1. Put plainly: cells. The note with it: Homo sapiens, THP-1, 72 h.
Data set [5] can be described thus: in vitro. Particulars: human, BJ cells.
In the next data set the test system is K562. Put plainly: cells. Particulars: Homo sapiens, K562, 72 h.
For the next data set, the system named is MOLM-13. Put plainly: cells. The note with it: Homo sapiens, MOLM-13, 72 h.
The test system of the next data set is U-937. Put plainly: cells. The note with it: Homo sapiens, U-937, 72 h.
Data set [6] has as its target Receptor-type tyrosine-protein kinase FLT3 (Homo sapiens, UniProt P36888, ITD). Put plainly: biochemical. Type of data set: cell-based, Sf9.
Description: Inhibition of N-terminal GST/His6-fused recombinant human FLT3 (R571 to S993 residues) ITD mutant expressed in Sf9 insect cells using poly (Ala,Glu,Lys,Tyr) 6:2:5:1 hydrobromide as substrate in presence of [gamma-33P]ATP

The structures appear in SMILES notation.

Consider `N[C@H]1CC[C@H](Nc2nc(Nc3ccc(N4CC5(COC5)C4)cc3)c3ncn(C4CCCC4)c3n2)CC1`, for which the GI50 (as a rule, the concentration that inhibits growth by half) with MCF7 is 1060 nM; in the data set with HCC827, 456 nM; in the data set on Kasumi 1 it was 734 nM; in the data set with MV4-11 it was 3 nM; in the data set with THP-1, 693 nM; in the data set on K562 it was 1220 nM. Further, the GI50 worked out at 4 nM with MOLM-13 and 638 nM in the data set with U-937. Also, the values for the GI50 at 72 h in “in vitro [1]”, in “in vitro [3]” and in the data set “in vitro [5]” were 5950 nM, 9800 nM and 14600 nM, respectively. In addition, the IC50 (as a rule, the concentration that gives 50% inhibition) turned out to be 28 nM in data set [2], 13 nM in [4] and 4 nM in data set [6].
`N[C@H]1CC[C@H](Nc2nc(Nc3ccc(N4CCOCC4)cc3)c3ncn(C4CCCC4)c3n2)CC1`: the GI50 is 320 nM in the data set on MCF7; 521 nM with HCC827; 816 nM with Kasumi 1; 2 nM in the data set on MV4-11; 1160 nM in the data set with THP-1; 965 nM in the data set with K562. The GI50 came to 4 nM in the data set on MOLM-13 and 1570 nM in the data set on U-937. Besides, the GI50 at 72 h worked out at 4530 nM in “in vitro [1]”, 23300 nM in the data set “in vitro [3]” and 12200 nM in the data set “in vitro [5]”. The IC50 came to 7 nM in data set [2], 21 nM in data set [4] and 2 nM in [6].
Consider `N[C@H]1CC[C@H](Nc2nc(Nc3ccc(Br)cc3)c3ncn(C4CCCC4)c3n2)CC1`, for which the GI50 with MCF7 was 520 nM; in the data set on HCC827, 1280 nM; in the data set with Kasumi 1, 481 nM; in the data set with MV4-11, 10 nM; in the data set with THP-1, 2280 nM; in the data set with K562 it was 670 nM. The GI50 with MOLM-13 is 15 nM; in the data set on U-937, 1800 nM. The GI50 at 72 h amounted to 10100 nM in “in vitro [1]”, 20600 nM in the data set “in vitro [3]” and 14700 nM in the data set “in vitro [5]”. Besides, the 50% inhibitory concentration (IC50) in [2] is 4 nM; in data set [4] it was 16 nM; in data set [6], 4 nM.
In the case of `c1ccc(CNc2nc(Nc3ccc(CN4CCOCC4)cc3)c3ncn(C4CCCC4)c3n2)cc1`, the GI50 is 8600 nM in the data set with MCF7; over 5000 nM with HCC827; 4760 nM with Kasumi 1; 196 nM in the data set on MV4-11; over 10000 nM with THP-1; 3600 nM in the data set with K562. In addition, the GI50 in the data set on MOLM-13 stood at 122 nM; in the data set on U-937, 9790 nM. The results for the GI50 at 72 h in “in vitro [1]”, in “in vitro [3]” and in “in vitro [5]” were 10100 nM, 23900 nM and over 25000 nM, respectively. Also, the IC50 in data set [2] worked out at 624 nM; in [4] it was 83 nM; in [6] it was 26 nM.
Take `CCN1CCN(c2ccc(Nc3nc(N[C@H]4CC[C@H](N)CC4)nc4c3ncn4C3CCCC3)cc2)CC1`: the GI50 in the data set on MCF7 is 1050 nM; in the data set with HCC827, 592 nM; with Kasumi 1 it was 839 nM; with MV4-11, 1 nM; with THP-1, 514 nM; with K562, 2070 nM. Further, the GI50 in the data set on MOLM-13 turned out to be 4 nM; with U-937 it was 605 nM. Also, the results for the GI50 at 72 h in the data set “in vitro [1]”, in “in vitro [3]” and in “in vitro [5]” were 4440 nM, 22000 nM and 12900 nM, respectively. In addition, the values for the IC50 in data set [2], in data set [4] and in data set [6] were 2 nM, 10 nM and 3 nM, respectively.
Turning to `N[C@H]1CC[C@H](Nc2nc(Nc3ccc(N4CCCC4)cc3)c3ncn(C4CCCC4)c3n2)CC1`, the GI50 was 487 nM in the data set with MCF7; 1070 nM in the data set with HCC827; 569 nM in the data set on Kasumi 1; 18 nM with MV4-11; 3110 nM with THP-1; 940 nM in the data set on K562. The concentration for 50% growth inhibition (GI50) in the data set on MOLM-13 is 24 nM; in the data set with U-937, 3170 nM. Further, the GI50 at 72 h came to 12100 nM in “in vitro [1]”, 14000 nM in the data set “in vitro [3]” and 15900 nM in “in vitro [5]”. The concentration for half-maximal inhibition (IC50) came out at 11 nM in [2], 21 nM in data set [4] and 3 nM in data set [6].
